# Test results: patent US20090258883A1, “1H-Indole-Pyridinecarboxamide and 1H-Indole-Piperidinecarboxamide Compounds” (LES LABORATOIRES SERVIER, priority 2005, published 2009)
# Marks after values point to notes of the source that are not given here.
# Key:
# [1] = test system: tyrosine hydroxylase (TH) protein; assay: Induction of tyrosine hydroxylase (TH) in LC, SN and VTA of the mouse brain; format: in vivo, Balb/C mouse; details: for amount of TH in LC section 1: LC section 1 (posterior-to-anterior); for amount of TH in LC section 1 / amount of TH, LC, total: i.p. 20 mg/kg; for amount of TH in LC section 1 / amount of TH in LC section 2 / amount of TH in LC section 3 / amount of TH in LC section 4 / amount of TH in LC section 5 / amount of TH in LC section 6 / amount of TH in LC section 7 / amount of TH in LC section 8 / amount of TH in LC section 9 / amount of TH in LC section 10 / amount of TH in LC section 11 / amount of TH, LC, total: three days after single injection; for amount of TH in LC section 1 / amount of TH in LC section 2 / amount of TH in LC section 3 / amount of TH in LC section 4 / amount of TH in LC section 5 / amount of TH in LC section 6 / amount of TH in LC section 7 / amount of TH in LC section 8 / amount of TH in LC section 9 / amount of TH in LC section 10 / amount of TH in LC section 11 / amount of TH, LC, total / TH induction in the SN / TH induction in the VTA: relative to mean value of control group; for amount of TH in LC section 2: LC section 2, i.p. 20 mg/kg; for amount of TH in LC section 3: LC section 3, i.p. 20 mg/kg; for amount of TH in LC section 4: LC section 4, i.p. 20 mg/kg; for amount of TH in LC section 5: LC section 5, i.p. 20 mg/kg; for amount of TH in LC section 6: LC section 6, i.p. 20 mg/kg; for amount of TH in LC section 7: LC section 7, i.p. 20 mg/kg; for amount of TH in LC section 8: LC section 8, i.p. 20 mg/kg; for amount of TH in LC section 9: LC section 9, i.p. 20 mg/kg; for amount of TH in LC section 10: LC section 10, i.p. 20 mg/kg; for amount of TH in LC section 11: LC section 11, i.p. 20 mg/kg; for TH induction in the SN: substantia nigra; for TH induction in the SN / TH induction in the VTA: single i.p. injection; for TH induction in the VTA: ventral tegmental area
# Description: A search is made among the compounds for those which are capable of bringing about an increase in the tyrosine hydroxylase (TH) protein in the locus coeruleus (LC), substantia nigra (SN) and ventral tegmental area (VTA) of the brain of the Balb/C mouse. The animals used are consanguinal male mice of the pure Balb/C strain (Charles River Laboratories) aged 6 weeks at the time of treatment.
# The mice are given a single injection, by the intraperitoneal route, of the compound under test, dissolved in 0.04M HCl solution (corresponding control: 0.04M HCl), if the compound is sufficiently soluble, or in olive oil 90%/DMSO 10% (corresponding control: olive oil 90%/DMSO 10%) for compounds that are insoluble in an aqueous medium. The volume injected is 100 μl. The test groups comprise 10 animals.
# Three days after the injection of each compound, all the animals are sacrificed by decapitation. The brains are removed and then frozen in an isopentane solution at −30° C. for 45 seconds and subsequently stored at −80° C.
# Serial coronal sections 20 microns thick are then taken using a cryomicrotome. Each structure of interest is then sampled along the posterior-anterior axis of the brain by taking sections at 80-micron spacings in the case of the LC and at 80- or 160-micron spacings in the case of the VTA and SN. The limits of those structures are those described in the atlas of Franklin and Paxinos. The total proteins of each of those sections are transferred by direct collection of the sections to a nitrocellulose filter (Millipore). The amounts of TH present in each sample are measured by immunochemistry, fluorimetric detection and image analysis.
# muscarinic (M) receptors = assay: Affinity for receptors, displacement of labelled specific ligand: muscarinic; format: binding; details: concentration 10^−5 M
# Method: (§1) The affinity for receptors is determined according to customary methods of relations between the specific ligand and the receptor, which may be of animal origin or a human recombinant. The affinity was determined by the method of displacement of the labelled specific ligand by the compound under test and expressed by the dissociation constant KI. The receptor affinity was accordingly studied for 28 conventional receptors.
# [2] = test system: sigma (σ) receptors (ligand: haloperidol); assay: Affinity for receptors, displacement of labelled specific ligand: sigma; format: binding; details: concentration 10^−5 M
# Method: as §1
# [3] = test system: confluent endothelial cells from bovine capillaries; assay: Predicted crossing of the blood-brain barrier (BBB); format: in vitro ADME; parameters: key: high; intermediate; low; details: 20 μM in upper compartment, filter with bovine capillary endothelial cells, 10-60 minutes, LC-MS-MS
# Method: The substances are incubated at 20 μM in the upper compartment of a double container, the upper compartment being separated from the lower compartment either solely by a polycarbonate filter or by the same filter covered with confluent endothelial cells from bovine capillaries. Evaluation of the permeability kinetics is carried out by means of LC-MS-MS quantification of the unchanged substance in the lower compartment after 10, 20, 30, 40 and 60 minutes.
# The results are given in the form of the categories: high, intermediate, low.
# [4] = Predicted metabolic stability, mouse hepatic microsomes; format: in vitro ADME; details: 10^−7 M, mouse hepatic microsomes 0.33 mg of prot/ml, NADPH
# Method: (§2) The predicted metabolic stability is tested by incubation of the compounds at a concentration of 10^−7M in the presence of mouse, rat or human hepatic microsomes (0.33 mg of prot/ml). After addition of NADPH (nicotinamide adenine dinucleotide phosphate, reduced form), samples are taken at 0, 5, 15, 30 and 60 minutes. The enzymatic reaction is stopped using methanol (V/V). The protein is precipitated by centrifugation and the supernatant is analysed by LC-MS-MS.
# [5] = Predicted metabolic stability, human hepatic microsomes; format: in vitro ADME; details: 10^−7 M, human hepatic microsomes 0.33 mg of prot/ml, NADPH
# Method: as §2
# [6] = target: 5HT receptors (type 5HT2A) (Homo sapiens, UniProt P28223); assay: Affinity for receptors, displacement of labelled specific ligand: 5HT2A; format: binding; details: for inhibition at 10 µM: concentration 10^−5 M; for inhibition at 0.1 µM: concentration 10^−7 M
# 5HT receptors (type 5HT2A), sequence (P28223 whole entry): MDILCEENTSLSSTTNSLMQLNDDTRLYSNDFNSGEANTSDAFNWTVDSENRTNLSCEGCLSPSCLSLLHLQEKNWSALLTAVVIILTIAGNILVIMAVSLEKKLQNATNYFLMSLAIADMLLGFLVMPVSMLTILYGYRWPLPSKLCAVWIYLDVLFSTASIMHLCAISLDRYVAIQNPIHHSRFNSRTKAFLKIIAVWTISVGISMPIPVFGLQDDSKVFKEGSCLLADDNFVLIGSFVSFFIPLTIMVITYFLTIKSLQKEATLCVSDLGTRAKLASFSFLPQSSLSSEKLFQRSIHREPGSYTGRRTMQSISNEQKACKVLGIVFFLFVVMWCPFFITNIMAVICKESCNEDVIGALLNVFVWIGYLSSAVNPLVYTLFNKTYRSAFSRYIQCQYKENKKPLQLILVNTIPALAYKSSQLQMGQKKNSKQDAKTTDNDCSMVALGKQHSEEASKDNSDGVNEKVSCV
# [7] = target: dopaminergic receptors (type D1) (Homo sapiens, UniProt P21728); assay: Affinity for receptors, displacement of labelled specific ligand: D1; format: binding; details: for inhibition at 10 µM: concentration 10^−5 M; for inhibition at 0.1 µM: concentration 10^−7 M
# dopaminergic receptors (type D1), sequence (P21728 whole entry): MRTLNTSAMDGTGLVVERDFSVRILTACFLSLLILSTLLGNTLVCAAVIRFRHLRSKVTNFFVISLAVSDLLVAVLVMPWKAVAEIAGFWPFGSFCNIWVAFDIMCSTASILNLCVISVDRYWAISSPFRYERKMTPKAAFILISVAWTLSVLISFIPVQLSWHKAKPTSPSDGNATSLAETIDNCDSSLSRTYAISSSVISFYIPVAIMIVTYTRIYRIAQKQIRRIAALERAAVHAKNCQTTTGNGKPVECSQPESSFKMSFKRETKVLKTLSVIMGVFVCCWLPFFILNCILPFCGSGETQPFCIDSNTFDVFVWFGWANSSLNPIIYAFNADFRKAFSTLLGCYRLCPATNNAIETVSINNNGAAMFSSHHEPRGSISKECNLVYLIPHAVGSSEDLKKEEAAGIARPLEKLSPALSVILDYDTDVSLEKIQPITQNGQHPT
# [8] = target: dopaminergic receptors (type D2) (Homo sapiens, UniProt P14416); assay: Affinity for receptors, displacement of labelled specific ligand: D2; format: binding; details: for inhibition at 10 µM: concentration 10^−5 M; for inhibition at 0.1 µM: concentration 10^−7 M
# dopaminergic receptors (type D2), sequence (P14416 whole entry): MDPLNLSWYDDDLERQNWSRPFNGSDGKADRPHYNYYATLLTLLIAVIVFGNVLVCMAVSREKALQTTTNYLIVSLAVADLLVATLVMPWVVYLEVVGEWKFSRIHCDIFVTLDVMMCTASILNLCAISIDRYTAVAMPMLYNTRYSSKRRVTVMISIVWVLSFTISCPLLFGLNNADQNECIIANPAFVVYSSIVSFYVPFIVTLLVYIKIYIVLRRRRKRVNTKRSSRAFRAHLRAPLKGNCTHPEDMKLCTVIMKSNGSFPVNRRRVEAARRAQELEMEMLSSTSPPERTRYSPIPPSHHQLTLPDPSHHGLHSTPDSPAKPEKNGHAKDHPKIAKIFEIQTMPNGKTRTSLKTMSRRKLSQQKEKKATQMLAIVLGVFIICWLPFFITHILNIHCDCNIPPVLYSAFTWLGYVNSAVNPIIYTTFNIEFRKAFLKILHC
SMILES,amount of TH in LC section 1 [1],amount of TH in LC section 2 [1],amount of TH in LC section 3 [1] [%],amount of TH in LC section 4 [1] [%],amount of TH in LC section 5 [1],amount of TH in LC section 6 [1],amount of TH in LC section 7 [1],amount of TH in LC section 8 [1],amount of TH in LC section 9 [1] [%],amount of TH in LC section 10 [1] [%],amount of TH in LC section 11 [1] [%],"amount of TH, LC, total [1]",TH induction in the SN [1],TH induction in the VTA [1] [%],degree of crossing of the BBB (category) [3],inhibition at 10 µM [6] [%],inhibition at 0.1 µM [6] [%],inhibition at 10 µM [7] [%],inhibition at 0.1 µM [7] [%],inhibition at 10 µM [8] [%],further results
"CN1CCC=C(C(=O)Nn2ccc3ccccc32)C1 [Example 1, N-(1H-indol-1-yl)-1-methyl-1,2,5,6-tetrahydropyridine-3-carboxamide]",57%,72%,128,128,158* %,152* %,131%,107%,106,95,55,121%,155** %,125,high,< 10,< 10,< 10,< 10,< 10,"TH induction in the SN, in words ([1]; SN): markedly induces TH; TH induction in the VTA, in words ([1]; VTA): markedly induces TH; TH induction in the medial LC (sections 4, 5 and 6), in words ([1]; medial LC): markedly induces TH; % inhibition M (muscarinic (M) receptors): 23%; % inhibition σ [2]: 44%; % metabolic stability predicted using hepatic microsomes, Mouse [4]: 40%; % metabolic stability predicted using hepatic microsomes, Human [5]: 70%; inhibition at 0.1 µM [8]: < 10%"
"O=C(Nn1ccc2ccccc21)C1CCCN(CCN2CCCCC2)C1 (stereo not shown) [Example 24, N-(1H-indol-1-yl)-1-[2-(1-piperidyl)ethyl]-3-piperidinecarboxamide]",165* %,157* %,120,127,145* %,131** %,139* %,116%,139,96,94,129** %,,,high,,,,,,
"CN1CCC=C(C(=O)Nn2ccc3cc(F)ccc32)C1 [Example 7, N-(5-fluoro-1H-indol-1-yl)-1-methyl-1,2,5,6-tetrahydropyridine-3-carboxamide]",113%,139* %,112,119,138** %,122%,141** %,131* %,96,125,106,123** %,88* %,94,high,< 10,< 10,< 10,< 10,< 10,"TH induction in the LC, in words ([1]; LC): induce TH only in the LC; inhibition at 0.1 µM [8]: < 10%"
"CN1CC[C@H](C(=O)Nn2ccc3ccccc32)[C@H](c2ccc(F)cc2)C1 [Example 38, (3R,4S)-3-(4-Fluorophenyl)-N-(1H-indol-1-yl)-1-methylpiperidine-4-carboxamide]",,,,,,,,,,,,,,,,,,,,,melting point: 134 °C
